Our source for the IC50 and max % inh values is patent US11168080B2, “Dynamin-1-like protein inhibitors” (Mitobridge, Inc., priority 2017, dated 2021).

Molecules are shown by their SMILES. Some results are limits rather than exact numbers.

This assay addresses Drp1 (Homo sapiens (Human), UniProt O00429). The experiment in a line: Drp1 Activity Screen: colorimetric (malachite green) GTPase assay. It counts as biochemical. The note with it: 1 mM GTP, 20 min at 37° C.; for IC50: GTPase activity, 0.6 μM Drp1 preincubated with 0.1 mg/mL liposomes; for max % inh: max % inhibition of Drp1 GTPase activity, 0.6 μM Drp1, 0.1 mg/mL liposomes. As to the method: The GTPase activity of Drp1 was assayed using a colorimetric assay similar to as described previously by Leonard M. et al. “Robust colorimetric assays for dynamin's basal and stimulated GTPase activities.” Methods Enzymol. […] Briefly, for GTPase assays of purified Drp1 inhibitor samples, 0.6 μM Drp1 preincubated with 0.1 mg/mL liposomes (consisting of 80% soybean lipids/20% cardiolipin) and inhibitor was added to 1 mM GTP in a microtiter plate for 20 min at 37° C. in 4 mM MgCl2, 10 mM Hepes (pH 7.0), 100 mM KCl, 1 mM DTT. Reactions were stopped by diluting with 0.5 mM EDTA. Samples were then incubated with malachite green reagent (1 mM malachite green and 50 mM ammonium molybdate in 1 N HCl), and the absorbance at 650 nm was measured. The reaction rates, IC50 values, and max % inhibition were determined using Excel/GraphPad Prism software.

Chain of Drp1 (O00429 whole entry): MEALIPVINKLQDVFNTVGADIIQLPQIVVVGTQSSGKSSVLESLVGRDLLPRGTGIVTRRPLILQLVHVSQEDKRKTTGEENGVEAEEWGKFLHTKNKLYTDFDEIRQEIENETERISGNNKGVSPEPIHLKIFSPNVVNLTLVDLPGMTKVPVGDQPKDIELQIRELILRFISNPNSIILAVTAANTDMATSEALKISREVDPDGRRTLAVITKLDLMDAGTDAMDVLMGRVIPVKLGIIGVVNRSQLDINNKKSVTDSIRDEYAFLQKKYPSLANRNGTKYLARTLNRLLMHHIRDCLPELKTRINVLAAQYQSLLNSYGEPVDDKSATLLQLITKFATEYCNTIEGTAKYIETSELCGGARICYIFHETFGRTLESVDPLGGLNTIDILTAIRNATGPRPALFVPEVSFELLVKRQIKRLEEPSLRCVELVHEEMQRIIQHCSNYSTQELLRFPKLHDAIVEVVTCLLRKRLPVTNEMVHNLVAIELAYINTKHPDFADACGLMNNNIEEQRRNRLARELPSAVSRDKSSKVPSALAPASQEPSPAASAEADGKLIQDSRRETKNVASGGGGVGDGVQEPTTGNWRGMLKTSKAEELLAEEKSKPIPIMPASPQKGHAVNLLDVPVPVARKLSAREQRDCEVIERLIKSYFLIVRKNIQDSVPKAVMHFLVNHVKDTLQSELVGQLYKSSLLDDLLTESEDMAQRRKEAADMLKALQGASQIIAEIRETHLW

On to `Cc1cc(C(=O)Nc2ccccc2)n(Cc2csc(N3CCCCC3)n2)c1` [Compound A-15, 4-methyl-N-phenyl-1-((2-(piperidin-1-yl)thiazol-4-yl)methyl)-1H-pyrrole-2-carboxamide], for which the half-inhibitory concentration (IC50) amounted to 2.2 µM and the max % inh is 68%.

`Nc1cc(C(=O)Nc2ccc(C(=O)O)cc2)n(Cc2csc(N3CCCCC3)n2)c1` [Compound A-53, 4-(4-Amino-1-((2-(piperidin-1-yl)thiazol-4-yl)methyl)-1H-pyrrole-2-carboxamido)benzoic acid]: the IC50 was greater than 100 µM. On the same count and under the same terms, under `CNC(=O)c1ccc(NC(=O)c2cc(C)cn2Cc2csc(N3CCCCC3)n2)cc1` [Compound A-22, 4-methyl-N-(4-(methylcarbamoyl)phenyl)-1-((2-(piperidin-1-yl)thiazol-4-yl)methyl)-1H-pyrrole-2-carboxamide] stands 1.8 µM. Still for that read-out and setting: the figure for `Cc1cc(C(=O)NCc2ccc(C(=O)O)cc2)n(Cc2csc(N3CCCCC3)n2)c1` [Compound A-1, 4-((4-methyl-1-((2-(piperidin-1-yl)thiazol-4-yl)methyl)-1H-pyrrole-2-carboxamido)methyl)benzoic Acid] is 6.4 µM. Still for that read-out and setting: the figure for `Cc1cc(C(=O)Nc2ccc(C(=O)O)cc2)n(Cc2csc(-c3ccccc3)n2)c1` [Compound A-17, 4-(4-methyl-1-((2-phenylthiazol-4-yl)methyl)-1H-pyrrole-2-carboxamido)benzoic Acid] is 3.8 µM; for `Cc1cc(C(=O)Nc2ccc(C(=O)O)c(F)c2)n(Cc2csc(N3CCCCC3)n2)c1` [Compound A-57, 2-fluoro-4-(4-methyl-1-((2-(piperidin-1-yl)thiazol-4-yl)methyl)-1H-pyrrole-2-carboxamido)benzoic Acid] it is 2.8 µM. In the case of `Cc1cc(C(=O)Nc2ccc3ccccc3c2)n(Cc2csc(N3CCCCC3)n2)c1` [Compound A-23, 4-methyl-N-(naphthalen-2-yl)-1-((2-(piperidin-1-yl)thiazol-4-yl)methyl)-1H-pyrrole-2-carboxamide], the midpoint of inhibition, the IC50, lay at 1.6 µM.

`Cc1cc(C(=O)Nc2ccc(C(=O)O)cc2)n(Cc2csc(N3CCCC(C)C3)n2)c1` (centres unmarked) [Compound A-19, 4-(4-methyl-1-((2-(3-methylpiperidin-1-yl)thiazol-4-yl)methyl)-1H-pyrrole-2-carboxamido)benzoic Acid] showed an IC50 of 2.7 µM. Consider `Cc1ccc(C(=O)Nc2ccccc2)n1Cc1csc(N2CCCCC2)n1` [Compound A-39, 5-methyl-N-phenyl-1-((2-(piperidin-1-yl)thiazol-4-yl)methyl)-1H-pyrrole-2-carboxamide], for which the IC50 came out at 36 µM and the max % inh was 26%. The corresponding values for `Cc1cc(C(=O)Nc2ccc(I)cc2)n(Cc2csc(N3CCCCC3)n2)c1` [Compound A-33, N-(4-iodophenyl)-4-methyl-1-((2-(piperidin-1-yl)thiazol-4-yl)methyl)-1H-pyrrole-2-carboxamide] are 4.5 µM and 34%.

`Cc1cc(C(=O)Nc2ccc(N3CCNC3=O)cc2)n(Cc2csc(N3CCCCC3)n2)c1` [Compound A-43, 4-methyl-N-(4-(2-oxoimidazolidin-1-yl)phenyl)-1-((2-(piperidin-1-yl)thiazol-4-yl)methyl)-1H-pyrrole-2-carboxamide] gave a concentration for half-maximal inhibition (IC50) of 4.3 µM. Turning to `Cc1cc(C(=O)Nc2ccc(C(=O)O)nc2)n(Cc2csc(N3CCCCC3)n2)c1` [Compound A-62, 5-(4-methyl-1-((2-(piperidin-1-yl)thiazol-4-yl)methyl)-1H-pyrrole-2-carboxamido)picolinic Acid], it took 17 µM to reach half-maximal inhibition (IC50). Still for that read-out and setting: under `Cc1cc(C(=O)Nc2ccncc2)n(Cc2csc(N3CCCCC3)n2)c1` [Compound A-32, 4-methyl-1-((2-(piperidin-1-yl)thiazol-4-yl)methyl)-N-(pyridin-4-yl)-1H-pyrrole-2-carboxamide] stands 10.3 µM; under `Cc1cc(C(=O)N(C)c2ccccc2)n(Cc2csc(N3CCCCC3)n2)c1` [Compound A-28, N,4-dimethyl-N-phenyl-1-((2-(piperidin-1-yl)thiazol-4-yl)methyl)-1H-pyrrole-2-carboxamide], greater than 100 µM. Still for that read-out and setting: the figure for `Cc1cc(C(=O)Nc2cc(F)c(O)c(F)c2)n(Cc2csc(N3CCCCC3)n2)c1` [Compound A-24, N-(3,5-difluoro-4-hydroxyphenyl)-4-methyl-1-((2-(piperidin-1-yl)thiazol-4-yl)methyl)-1H-pyrrole-2-carboxamide] is 21.8 µM. The same measure, in the same setting: under `Cc1cc(C(=O)Nc2ccc(C(=O)O)cc2F)n(Cc2csc(N3CCCCC3)n2)c1` [Compound A-66, 3-fluoro-4-(4-methyl-1-((2-(piperidin-1-yl)thiazol-4-yl)methyl)-1H-pyrrole-2-carboxamido)benzoic Acid] stands 7.8 µM. With `O=C(O)c1ccc(NC(=O)c2ccccc2Cc2csc(N3CCCCC3)n2)cc1` [Compound A-11, 4-(2-((2-(piperidin-1-yl)thiazol-4-yl)methyl)benzamido)benzoic Acid], the 50% inhibitory concentration (IC50) is greater than 100 µM.

`Cc1cc(C(=O)Nc2ccc(C(=O)O)cc2)n(Cc2csc(N3CCCCC3C)n2)c1` (centres unmarked) [Compound A-20, 4-(4-methyl-1-((2-(2-methylpiperidin-1-yl)thiazol-4-yl)methyl)-1H-pyrrole-2-carboxamido)benzoic Acid] gave a 50% inhibitory concentration (IC50) of 3.9 µM. Still for that read-out and setting: the figure for `Cc1cc(C(=O)NC2COc3ccccc3C2)n(Cc2csc(N3CCCCC3)n2)c1` (centres unmarked) [Compound A-34, N-(chroman-3-yl)-4-methyl-1-((2-(piperidin-1-yl)thiazol-4-yl)methyl)-1H-pyrrole-2-carboxamide] is 9 µM. The same measure, in the same setting: under `Cc1cc(C(=O)Nc2ccc(-c3ccoc3)cc2)n(Cc2csc(N3CCCCC3)n2)c1` [Compound A-38, N-(4-(furan-3-yl)phenyl)-4-methyl-1-((2-(piperidin-1-yl)thiazol-4-yl)methyl)-1H-pyrrole-2-carboxamide] stands 1.2 µM; under `Cc1cc(C(=O)NC2CCOCC2)n(Cc2csc(N3CCCCC3)n2)c1` [Compound A-29, 4-methyl-1-((2-(piperidin-1-yl)thiazol-4-yl)methyl)-N-(tetrahydro-2H-pyran-4-yl)-1H-pyrrole-2-carboxamide], 14.4 µM. The same measure, in the same setting: under `Cc1cc(C(=O)NC2CCCC2)n(Cc2csc(N3CCCCC3)n2)c1` [Compound A-25, N-cyclopentyl-4-methyl-1-((2-(piperidin-1-yl)thiazol-4-yl)methyl)-1H-pyrrole-2-carboxamide] stands 5.7 µM; under `Cc1cc(C(=O)Nc2ccc(C(=O)O)cc2)n(Cc2cccc(N3CCCCC3)n2)c1` [Compound A-16, 4-(4-methyl-1-((6-(piperidin-1-yl)pyridin-2-yl)methyl)-1H-pyrrole-2-carboxamido)benzoic Acid], 1.7 µM.

For the compound `Cc1cc(C(=O)N[C@H]2CC[C@H](C(=O)O)CC2)n(Cc2csc(N3CCCCC3)n2)c1` [Compound A-13, trans-4-(4-methyl-1-((2-(piperidin-1-yl)thiazol-4-yl)methyl)-1H-pyrrole-2-carboxamido)cyclohexane-1-carboxylic Acid], the 50% inhibitory concentration (IC50) is 5.5 µM.

In turn, `Cc1cc(C(=O)Nc2ccc(-c3cn[nH]c3)cc2)n(Cc2csc(N3CCCCC3)n2)c1` [Compound A-37, N-(4-(1H-pyrazol-4-yl)phenyl)-4-methyl-1-((2-(piperidin-1-yl)thiazol-4-yl)methyl)-1H-pyrrole-2-carboxamide] yielded an IC50 of 1.2 µM.

In turn, `Cc1cc(C(=O)Nc2ccc(-c3cccnc3)cc2)n(Cc2csc(N3CCCCC3)n2)c1` [Compound A-35, 4-methyl-1-((2-(piperidin-1-yl)thiazol-4-yl)methyl)-N-(4-(pyridin-3-yl)phenyl)-1H-pyrrole-2-carboxamide] had an IC50 of 1.2 µM. The same measure, in the same setting: the figure for `Cc1cc(C(=O)N[C@H]2CC[C@@H](C(=O)O)CC2)n(Cc2csc(N3CCCCC3)n2)c1` [Compound A-14, cis-4-(4-methyl-1-((2-(piperidin-1-yl)thiazol-4-yl)methyl)-1H-pyrrole-2-carboxamido)cyclohexane-1-carboxylic Acid] is 39 µM; for `Cc1cc(C(=O)NC2CCCOC2)n(Cc2csc(N3CCCCC3)n2)c1` (centres unmarked) [Compound A-27, 4-methyl-1-((2-(piperidin-1-yl)thiazol-4-yl)methyl)-N-(tetrahydro-2H-pyran-3-yl)-1H-pyrrole-2-carboxamide] it is 9.6 µM.

`Cc1cc(C(=O)Nc2ccc3c(c2)CC(=O)N3)n(Cc2csc(N3CCCCC3)n2)c1` [Compound A-41, 4-methyl-N-(2-oxoindolin-5-yl)-1-((2-(piperidin-1-yl)thiazol-4-yl)methyl)-1H-pyrrole-2-carboxamide] registered an IC50 of 4.2 µM. With `Cc1cc(C(=O)Nc2ccc(C(=O)O)cc2)n(Cc2csc(N3CCCCCC3)n2)c1` [Compound A-18, 4-(1-((2-(azepan-1-yl)thiazol-4-yl)methyl)-4-methyl-1H-pyrrole-2-carboxamido)benzoic Acid], the midpoint of inhibition, the IC50, lay at 3.4 µM. Still for that read-out and setting: under `O=C(O)c1ccc(NC(=O)c2cc(Cl)cn2Cc2csc(N3CCCCC3)n2)cc1` [Compound A-70, 4-(4-chloro-1-((2-(piperidin-1-yl)thiazol-4-yl)methyl)-1H-pyrrole-2-carboxamido)benzoic Acid] stands 2.3 µM. Still for that read-out and setting: the figure for `Cc1cc(C(=O)Nc2ccc(S(N)(=O)=O)cc2)n(Cc2csc(N3CCCCC3)n2)c1` [Compound A-8, 4-methyl-1-((2-(piperidin-1-yl)thiazol-4-yl)methyl)-N-(4-sulfamoylphenyl)-1H-pyrrole-2-carboxamide] is 2.5 µM.

One may read the IC50 as the point on the concentration scale where inhibition reaches its midpoint. Lower therefore signals inhibition by little substance.
